The record followed here is patent US20170129911A1, “COMPLEXES COMPRISING A PLATINUM COMPOUND AND AN IMMUNE CHECKPOINT INHIBITOR AND RELATED METHODS” (Massachusetts Institute of Technology, priority 2015, published 2017).

The nature of series [1]: Whole human blood stability test. It counts as in vitro ADME. As for the experimental part:
To a volume of 0.8 mL fresh whole human blood (Innovative Research, Novi, Mich.) was added 24 μL of a DMSO solution of 2 (2.0 mM), resulting in a final concentration of 60 μM. After 5 sec of vortexing, a 100 μL aliquot of the blood sample (0 h time point) was immediately transferred to a new tube containing 300 μL of octanol, and the remaining […] of blood was incubated at 37° C. with rotation (1100 rpm). The blood-octanol mixture was vortexed for 2 min at R.T. and then centrifuged to separate the phases. The isolated octanol extract was diluted with methanol for GFAAS measurement. At varying time points (1 h, 2 h, 3 h, 5 h, and 7 h), a 100 μL aliquot was removed from the incubating blood and extracted as described above. For the 7 h sample, analytical HPLC was employed to confirm the integrity of the Pt compound. A standard of 2 and an octanol extract from blank whole human blood were used for comparison.

In series [2] the test system is SKOV3 cells. Briefly: Annexin V/sytox green apoptosis dead cell assay. In kind it is cell-based, human. To be noted: 72 h of treatment. An excerpt:
Therapeutic nanoparticles (NPs) have been widely investigated for their potential to enhance cancer treatment. The chemical structure of 2 bears both hydrophilic (1-D-MT) and hydrophobic (hexadecyl isocyanate) axial ligands, conferring amphiphilic character to the molecule. In some cases, the hexadecyl isocyanate axial ligand facilitate non-covalent binding to human serum albumin, protecting the Pt(IV) center from premature reduction in blood. In the presence of the biodegradable block copolymer, poly(lactic-co-glycolic acid)-polyethylene glycol (PLGA-PEG), 2 readily self-assembles into NPs suitable for preclinical studies (FIG. 5A). […] Having obtained the nanoparticles, the ability of 2 and its NP to induce apoptosis was investigated. Translocation of phosphatidylserine residues to the exterior is a characteristic of apoptotic cells, which have a compromised cell membrane, and can be detected by annexin V. Using a dual staining annexin V/sytox green apoptosis dead cell assay, we examined the apoptotic behavior of SKOV3 cells after 72 h of treatment with 2 and its NP by flow cytometry.

For series [3], the target named is IDO (Homo sapiens, UniProt P14902). Description: Cellular determination of kynurenine by HPLC in medium of SKOV3 cells. The note with it: 2 10 μM vs (D)-1-MT 1 mM.
The nature of series [4]: Solubility in PBS. It counts as physicochemical.
Series [5] is described as follows: In vivo blood stability in mice. How it is done:
The hydrophobic complex 2 was extracted with octanol, diluted, and the Pt concentration was determined by GFAAS.
The octanol extracts were diluted with methanol and analysed by GFAAS.

The subject of series [6] is Eμ-Myc lymphoma cells. Briefly: RNAi signature (GFP competition) assay. To be noted: LD80-90 dose, 72 h.
Series [7] relates to A2780/CP70 human ovarian cancer cells. Briefly: Cytotoxicity MTT assay, A2780/CP70. In kind it is cell-based. To be noted: cisplatin-sensitive and resistant ovarian cancer cell lines. An excerpt: Ovarian carcinoma cells, NIH:OVCAR3, A2780, A2780/CP70, and SKOV3 were purchased from the American Type Culture Collection (ATCC, Rockville Md.). Peripheral blood mononuclear cells (PBMCs) of two different donors were obtained from Zen Bio Inc. (Research Triangle, NC). Cancer cell lines were maintained in Roswell Park Memorial Institute (RPMI) medium (glutamine-free supplemented with 10% fetal bovine serum, Atlanta Biologics, Atlanta Ga.) and 1% penicillin/streptomycin. PBMCs were thawed in specialized medium (10% […], 40% RPMI and 50% FBS) and subsequently cultured in RPMI containing 20% FBS. For T-cell proliferation experiments, PBMCs were stimulated by the addition of phytohemagglutinin (PHA-P). All cells were grown at 310 K in a humidified atmosphere containing 5% CO2. D-1-methyltryptophan, L-tryptophan and L-kynurenine were purchased from Sigma Aldrich.
The colorimetric MTT assay was used to determine the toxicity of 1, 2, and cisplatin. Cells (2×10^3) were seeded in each well of a 96-well plate. […] Cisplatin was prepared as a 5 mM solution in PBS and diluted using media. 1, 2 and C16—Pt-Suc-NHC2H4OH were prepared as 10 mM solution in DMSO and diluted using media. The final volume amount of DMSO in each well was 0.5%, and which was present in the untreated control as well. Cells co-incubated with cisplatin and (D)-1-MT were first pre-treated with 1 mM (D)-1-MT. […] The RPMI/MTT, mixture was aspirated and 100 μL of DMSO was added to dissolve the resulting purple formazan crystals. The absorbance of the solution wells was read at 570 and 650 nm. Absorbance values were normalized to DMSO-containing control wells and plotted as concentration of test compound versus % cell viability. IC50 values were interpolated from the resulting dose dependent curves. The reported IC50 values are the average of at least three independent experiments, each of which consisted of six replicates per concentration level.

Series [8] has as its system SKOV3 cells. Briefly: Immunoblotting of DNA damage response markers. It counts as cell-based, human. The note with it: up to 48 h and 72 h. As for the experimental part: The ability of 2 to induce DNA damage was investigated by monitoring changes in expression of markers of the damage response pathway by immunoblotting analyses.
Cells were washed with PBS, scraped into SDS-PAGE loading buffer (64 mM Tris-HCl (pH 6.8)/9.6% glycerol/2% SDS/5% β-mercaptoethanol/0.01% Bromophenol Blue), and incubated at 95° C. for 10 min. Whole cell lysates were resolved by 4-20% sodium dodecylsulphate polyacylamide gel electrophoresis (SDS-PAGE; 200 V for 25 min) followed by electro transfer to polyvinylidene difluoride membrane, PVDF (350 mA for 1 h). Membranes were blocked in 5% (w/v) bovine serum albumin in PBST (PBS/0.1% Tween 20) and incubated with the appropriate primary antibodies (Cell Signalling Technology and Santa Cruz). After incubation with horseradish peroxidase-conjugated secondary antibodies (Cell Signalling Technology), 1:1000, immuno complexes were detected with the ECL detection reagent (BioRad) and analyzed using UVP biospectrum imaging system fitted with a chemiluminescence filter.

Series [9] has as its system SKOV3 cells. Briefly: Cell cycle analysis by flow cytometry (DNA content).
Series [10] in a line: Water-octanol partition coefficient (Log P), shake-flask method and GFAAS. To be noted: octanol/PBS.

IDO, sequence (P14902 whole entry): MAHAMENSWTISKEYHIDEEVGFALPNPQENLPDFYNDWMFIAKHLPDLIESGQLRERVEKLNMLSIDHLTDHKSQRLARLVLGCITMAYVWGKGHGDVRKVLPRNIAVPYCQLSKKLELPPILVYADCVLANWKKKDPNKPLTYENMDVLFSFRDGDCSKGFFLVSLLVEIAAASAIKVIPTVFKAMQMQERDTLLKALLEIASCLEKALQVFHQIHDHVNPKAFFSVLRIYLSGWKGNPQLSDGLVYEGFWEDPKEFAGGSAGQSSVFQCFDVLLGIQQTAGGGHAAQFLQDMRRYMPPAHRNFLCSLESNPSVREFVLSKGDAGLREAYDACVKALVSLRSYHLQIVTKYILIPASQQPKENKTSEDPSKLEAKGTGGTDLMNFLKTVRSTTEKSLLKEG

As to `CCCCCCCCCCCCCCCCNC(=O)[O][Pt]([NH2])([NH2])([Cl])([Cl])[O]C(=O)CCC(=O)NCCOC(=O)[C@H](N)Cc1cn(C)c2ccccc12` (mixture of isomers) [Compound 2, cis,cis,trans-[Pt(NH3)2Cl2(O2CC2H4OCNHC2H4O2C-D-1MT)(O2CNHC16H33)]], in series [1] (fresh whole human blood, whole human blood, 60 μM, 37° C., read-out: t1/2 in human blood (converted)), the half-life at 60 µM was 2.2 h. Moreover, in series [1] (summary statement), the stability in blood entry is “stable in blood”. In addition, the induction of apoptosis result in series [2] was “induced large populations of SKOV3 cells to undergo apoptosis”. In series [3], the “block of kynurenine release in the medium in comparison to (D)-1-MT” value is reported as “by a factor of three”. The “solubility in PBS” value in series [4] was “low solubility”. Besides, the “Pt concentration in blood (octanol extract)” value in series [5] (24 h after i.v. NP formulation of 2, 8 mg/kg) is on record as “non-detectable levels”. For the same compound, the half-life in series [5] (female, Balb/c, mouse, whole blood, iv, 8 mg/kg) is ~1 h. In series [6], the RNAi signature result was “strong p53 and Chk2 shRNA enrichment”. Further, the cross-resistance with cisplatin entry in [7] is listed as “no cross-resistance with cisplatin”. Besides, the “expression of DNA damage response markers” value in [8] was “marked time-dependent increase in expression of phosphorylated ATR, ATM, BRCA1, Chk1, Chk2, H2AX, and p53”. Moreover, in series [9], the “cell cycle arrest phase” value was “cell cycle block at G1 phase”. The compound also displayed a log partition coefficient (logP) at 3 h in series [10] of 1.35 ± 0.26.
